According to US9040547B2, “Pyrrolopyrimidine and purine derivatives” (PFIZER INC., priority 2011, dated 2015):
Structures can show the parent of a compound that is named as a salt.

Tests used:
Format in all cases: cell-based
EGFR L858R+T790M = EGFR L858R+T790M (Homo sapiens, UniProt P00533, L858R/T790M); assay: pEGFR Y1068 ELISA assay, NIH3T3/EGFR_L858R+T790M cells; conditions: 3T3 cell line, 2 hrs compound treatment; read-out: pEGFRY1068 ELISA3T3T790M—L858R IC50;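 also: sandwich ELISA of EGFR phosphorylated at Tyr1068 in lysates of stably transfected NIH/3T3 cells, 11-point threefold dilution series run in duplicate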
Sequence of EGFR L858R+T790M (P00533 25-1210 T790M/L858R): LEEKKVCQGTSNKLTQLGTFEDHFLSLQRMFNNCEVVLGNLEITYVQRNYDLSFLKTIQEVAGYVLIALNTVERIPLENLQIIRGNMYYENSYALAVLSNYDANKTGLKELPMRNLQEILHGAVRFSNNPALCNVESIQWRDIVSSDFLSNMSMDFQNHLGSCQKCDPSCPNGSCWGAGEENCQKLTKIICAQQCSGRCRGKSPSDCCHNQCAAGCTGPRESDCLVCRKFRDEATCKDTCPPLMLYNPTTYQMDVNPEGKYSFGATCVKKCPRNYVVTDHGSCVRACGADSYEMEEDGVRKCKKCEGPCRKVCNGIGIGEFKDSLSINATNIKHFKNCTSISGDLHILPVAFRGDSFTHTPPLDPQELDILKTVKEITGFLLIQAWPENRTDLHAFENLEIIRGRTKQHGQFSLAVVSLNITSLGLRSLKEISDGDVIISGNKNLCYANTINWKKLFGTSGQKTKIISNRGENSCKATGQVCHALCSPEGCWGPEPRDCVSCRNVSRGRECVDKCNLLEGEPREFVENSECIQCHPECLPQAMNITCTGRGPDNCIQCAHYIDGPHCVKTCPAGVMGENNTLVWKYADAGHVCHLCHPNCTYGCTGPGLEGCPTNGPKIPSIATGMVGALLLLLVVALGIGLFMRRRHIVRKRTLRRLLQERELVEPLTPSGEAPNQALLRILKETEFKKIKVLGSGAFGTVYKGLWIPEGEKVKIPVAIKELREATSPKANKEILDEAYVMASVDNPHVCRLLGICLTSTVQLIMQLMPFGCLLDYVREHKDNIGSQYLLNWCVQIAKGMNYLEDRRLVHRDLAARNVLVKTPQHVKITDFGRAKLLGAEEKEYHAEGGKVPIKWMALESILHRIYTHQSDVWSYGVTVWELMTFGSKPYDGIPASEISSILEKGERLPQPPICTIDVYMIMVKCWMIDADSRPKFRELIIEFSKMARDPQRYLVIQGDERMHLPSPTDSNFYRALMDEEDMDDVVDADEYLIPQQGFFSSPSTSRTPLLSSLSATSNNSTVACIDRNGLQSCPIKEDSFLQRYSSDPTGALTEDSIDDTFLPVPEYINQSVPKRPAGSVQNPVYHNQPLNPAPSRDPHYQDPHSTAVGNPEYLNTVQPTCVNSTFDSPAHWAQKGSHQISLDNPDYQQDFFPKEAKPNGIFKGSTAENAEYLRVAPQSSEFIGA

EGFR L858R = EGFR L858R (Homo sapiens, UniProt P00533, L858R); assay: pEGFR Y1068 ELISA assay, NIH3T3/EGFR_L858R cells; conditions: 3T3 cell line, 2 hrs compound treatment; read-out: pEGFRY1068 ELISA3T3 L858R IC50;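 also: sandwich ELISA of phospho-EGFR Tyr1068 in lysates of stably transfected NIH/3T3 pools after 2 h compound exposure at 37 °C, 11-point threefold dilution series run in duplicate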
Sequence of EGFR L858R (P00533 25-1210 L858R): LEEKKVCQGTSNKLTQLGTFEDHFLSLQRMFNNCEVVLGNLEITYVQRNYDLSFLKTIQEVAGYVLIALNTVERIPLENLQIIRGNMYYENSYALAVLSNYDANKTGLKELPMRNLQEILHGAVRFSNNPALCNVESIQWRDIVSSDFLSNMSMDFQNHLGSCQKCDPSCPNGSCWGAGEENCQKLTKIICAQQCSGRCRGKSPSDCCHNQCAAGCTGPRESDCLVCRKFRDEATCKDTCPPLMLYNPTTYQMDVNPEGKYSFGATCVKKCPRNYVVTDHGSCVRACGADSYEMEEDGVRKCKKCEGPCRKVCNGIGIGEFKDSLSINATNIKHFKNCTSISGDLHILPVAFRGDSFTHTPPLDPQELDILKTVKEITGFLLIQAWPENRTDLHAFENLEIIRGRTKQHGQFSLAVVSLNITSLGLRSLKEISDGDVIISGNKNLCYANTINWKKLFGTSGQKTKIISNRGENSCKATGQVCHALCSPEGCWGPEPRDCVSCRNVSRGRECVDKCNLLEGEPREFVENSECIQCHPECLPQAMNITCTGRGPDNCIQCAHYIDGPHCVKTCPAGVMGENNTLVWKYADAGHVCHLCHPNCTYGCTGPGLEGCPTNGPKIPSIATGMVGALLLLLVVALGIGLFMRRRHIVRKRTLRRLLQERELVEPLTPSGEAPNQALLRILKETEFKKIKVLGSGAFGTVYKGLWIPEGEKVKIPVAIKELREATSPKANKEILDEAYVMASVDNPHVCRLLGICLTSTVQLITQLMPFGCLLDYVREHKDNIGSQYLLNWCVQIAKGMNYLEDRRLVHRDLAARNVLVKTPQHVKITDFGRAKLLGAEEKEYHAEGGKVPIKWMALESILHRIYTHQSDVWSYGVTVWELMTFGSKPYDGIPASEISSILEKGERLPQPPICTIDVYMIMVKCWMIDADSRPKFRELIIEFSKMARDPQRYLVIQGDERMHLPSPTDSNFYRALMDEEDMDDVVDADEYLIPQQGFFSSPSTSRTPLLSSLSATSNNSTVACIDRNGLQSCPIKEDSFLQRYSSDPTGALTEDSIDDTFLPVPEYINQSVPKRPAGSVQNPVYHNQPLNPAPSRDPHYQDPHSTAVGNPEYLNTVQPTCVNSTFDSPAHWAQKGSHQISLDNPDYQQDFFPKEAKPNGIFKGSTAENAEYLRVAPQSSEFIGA

[1] = target: T1, EGFR wildtype, endogenous (Homo sapiens, UniProt P00533); assay: pEGFR Y1068 ELISA assay, A549 cells; conditions: full serum media, stimulated 10 min with EGF (40 ng/mL), read-out: pEGFRY1068 ELISAA549 IC50;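 also: sandwich ELISA of phospho-EGFR Tyr1068 in cell lysates, cells exposed to compound for 2 h before EGF stimulation, 11-point threefold dilution series run in duplicate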
T1 construct: A549 (EGFR wildtype, endogenous); host or cells: A549

[2] = tested on: NIH3T3/EGFR_E746-A750_deletion+T790M; assay: Cell proliferation assay (CellTiter-Glo), NIH3T3/EGFR_E746-A750_deletion+T790M; conditions: Mus musculus, NIH3T3, 120 h, 3T3 cell line, three to five days of compound treatment, read-out: 3T3 del_T790M IC50
Protocol: (§1) Cell proliferation was measured using the CellTiter-Glo® Luminescent Cell Viability Assay. The assay involves the addition of a single reagent (CellTiter-Glo® Reagent) directly to cells cultured in serum-supplemented medium. The assay uses this one-step addition to induce cell lysis and generate a luminescent signal proportional to the amount of ATP present which is directly proportional to the number of metabolically active cells present in culture. The following cell lines were evaluated in this assay: NIH3T3/EGFR_L858R, NIH3T3/EGFR_E746-A750_deletion, NIH3T3/EGFR L858R+T790M, NIH3T3/EGFR_E746-A750_deletion+T790M, PC-9, PC9-DRH, NCI-H1975, and NCI-H3255. NIH/3T3 parental cells, NCI-H1975, and NCI-H3255 were purchased from the American Type Culture Collection (Manassas, Va.), and PC-9 cells were obtained from Japan. All cells were cultured according to recommendations. NIH/3T3 cells were grown in DMEM (Invitrogen, Carlsbad, Calif.) supplemented with 10% newborn calf serum (Invitrogen), and NIH3T3/EGFR mutant cells were grown in complete media with 5 μg/mL puromycin (Invitrogen). PC-9, NCI-H1975, and NCI-H3255 were grown in RPMI (Invitrogen, Carlsbad, Calif.) supplemented with 10% FBS (Sigma, St Louis, Mo.), and PC9-DRH cells were grown in complete media with 2 uM PF-00299804. Plasmids (pLPCX) with various EGFR constructs were made by GenScript (Piscataway, N.J.), and stable pools of NIH/3T3 cells expressing these constructs were made at Pfizer La Jolla. PC9-DRH cells were generated at Pfizer La Jolla by exposing cells to increasing concentrations of PF-00299804. Cells were plated in complete culture media (3000-5000 cells/well, 50 μl/well) on the bottom of white clear-bottom tissue culture treated microtiter plates (#3610, Corning Inc, Corning, N.Y.) and allowed to adhere overnight at 37° C., 5% CO2. The following day, compound dilution plates were prepared in 96 well clear V-bottom 0.5 mL polypropylene block plates (#3956, Corning, Inc). All cell lines were not evaluated for each compound. Each compound evaluated was prepared as a DMSO stock solution (10 mM). Compounds were tested in duplicate on each plate, with an 11-point serial dilution curve (1:3 dilution). Compound treatment (50 μl) was added from the compound dilution plate to the cell plate. The highest compound concentration was 1 or 10 μM (final), with a 0.3% final DMSO (#D-5879, Sigma, St Louis, Mo.) concentration. Plates were then incubated at 37° C., 5% CO2. After three to five days of compound treatment, CellTiter-Glo® Reagent (#G7573, Promega, Madison, Wis.) was prepared in one of two ways. If thawing a frozen aliquot of CellTiter-Glo® Reagent, the aliquot was thawed and equilibrated to room temperature prior to use while keeping it protected from light. Alternatively, new bottles of CellTiter-Glo® Buffer and CellTiter-Glo® Substrate were thawed and equilibrated to room temperature prior to use. CellTiter-Glo® Buffer (100 mL) was transferred into the amber bottle containing CellTiter-Glo® Substrate to reconstitute the lyophilized enzyme/substrate mixture, forming the CellTiter-Glo® Reagent. The reconstituted reagent was mixed by gently inverting the contents to obtain a homogeneous solution, and went into solution easily in less than one minute. Any unused reconstituted CellTiter-Glo® Reagent was immediately aliquoted and frozen at −20° C., protected from light. Cell plates were equilibrated at room temperature for approximately 30 minutes. An equivolume amount of CellTiter-Glo® Reagent (100 μL) was added to each well. Plates were mixed for two minutes on an orbital shaker to induce cell lysis, and then allowed to incubate at room temperature for 10 minutes to stabilize the luminescent signal. Luminescence was recorded using the PerkinElmer EnVision Excite Multilabel Reader used for endpoint reading for Luminescence detection (Waltham, Mass.). Data were analyzed using a four-parameter fit in Microsoft Excel. […]

NIH3T3/EGFR L858R+T790M = assay: Cell proliferation assay (CellTiter-Glo), NIH3T3/EGFR L858R+T790M; conditions: Mus musculus, NIH3T3, 120 h, 3T3 cell line, three to five days of compound treatment, read-out: 3T3 L858R_T790M IC50
[3] = tested on: NIH3T3/EGFR_E746-A750_deletion; assay: Cell proliferation assay (CellTiter-Glo), NIH3T3/EGFR_E746-A750_deletion; conditions: Mus musculus, NIH3T3, 120 h, 3T3 cell line, three to five days of compound treatment, read-out: 3T3 del IC50
Protocol: as §1

EGFR E746-A750 deletion = EGFR E746-A750 deletion (Homo sapiens, UniProt P00533, DEL746-750); assay: pEGFR Y1068 ELISA assay, NIH3T3/EGFR_E746-A750 deletion cells; conditions: 3T3 Del cells, 2 hrs compound treatment; read-out: ELISA7E 3T3 Del IC50;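 also: sandwich ELISA on cell lysates detecting phospho-EGFR at Tyr1068, compounds run as 11-point threefold dilution series in duplicate, IC50 from inhibition of this phosphorylation signal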
Sequence of EGFR E746-A750 deletion (P00533 with tags, fused parts or gaps DEL746-750): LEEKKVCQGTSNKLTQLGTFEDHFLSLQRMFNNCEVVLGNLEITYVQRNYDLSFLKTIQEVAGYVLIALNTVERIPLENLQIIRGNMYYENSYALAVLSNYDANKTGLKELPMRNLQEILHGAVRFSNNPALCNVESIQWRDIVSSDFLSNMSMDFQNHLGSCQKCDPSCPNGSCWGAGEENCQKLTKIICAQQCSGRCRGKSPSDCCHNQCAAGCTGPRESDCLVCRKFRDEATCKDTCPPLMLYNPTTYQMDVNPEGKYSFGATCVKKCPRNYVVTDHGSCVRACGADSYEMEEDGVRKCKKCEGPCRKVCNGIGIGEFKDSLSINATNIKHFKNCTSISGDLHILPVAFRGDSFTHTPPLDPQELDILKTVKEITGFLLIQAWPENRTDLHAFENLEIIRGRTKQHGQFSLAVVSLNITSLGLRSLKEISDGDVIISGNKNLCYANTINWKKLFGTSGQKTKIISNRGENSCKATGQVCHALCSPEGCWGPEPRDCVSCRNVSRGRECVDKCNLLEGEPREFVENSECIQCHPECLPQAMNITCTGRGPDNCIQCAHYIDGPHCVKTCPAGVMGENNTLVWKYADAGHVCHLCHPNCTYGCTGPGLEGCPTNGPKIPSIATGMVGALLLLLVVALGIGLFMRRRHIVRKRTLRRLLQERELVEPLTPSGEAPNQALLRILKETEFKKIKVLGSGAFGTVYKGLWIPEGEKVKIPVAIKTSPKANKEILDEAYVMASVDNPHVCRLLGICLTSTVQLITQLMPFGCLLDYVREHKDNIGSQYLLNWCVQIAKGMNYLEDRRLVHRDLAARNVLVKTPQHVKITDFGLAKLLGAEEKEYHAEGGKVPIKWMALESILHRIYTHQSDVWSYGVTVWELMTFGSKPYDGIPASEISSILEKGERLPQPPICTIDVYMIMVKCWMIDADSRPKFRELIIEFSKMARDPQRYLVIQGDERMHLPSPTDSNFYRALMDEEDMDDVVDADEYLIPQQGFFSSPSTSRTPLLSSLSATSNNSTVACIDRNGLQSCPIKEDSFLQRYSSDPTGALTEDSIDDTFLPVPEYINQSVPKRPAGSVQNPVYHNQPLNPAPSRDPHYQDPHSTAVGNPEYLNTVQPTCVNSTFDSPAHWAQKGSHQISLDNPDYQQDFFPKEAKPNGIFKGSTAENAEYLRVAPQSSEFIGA

NIH3T3/EGFR_L858R = assay: Cell proliferation assay (CellTiter-Glo), NIH3T3/EGFR_L858R; conditions: Mus musculus, NIH3T3, 120 h, 3T3 cell line, three to five days of compound treatment, read-out: 3T3 L858R IC50
Protocol: as §1

EGFR Del (PC9) = target: T2, EGFR Del (PC9) (Homo sapiens, UniProt P00533, DEL746-750); assay: EGFR ELISA, PC9 Del cells; conditions: read-out: EGFR_ELISA9E PC9 Del IC50;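 also: cellular EGFR autophosphorylation at Tyr1068 quantified by sandwich ELISA of cell lysates after 2 h compound exposure at 37 °C, 11-point threefold dilution series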
T2 construct: endogenous in cells; host or cells: PC-9
T2 sequence (P00533 with tags, fused parts or gaps DEL746-750): as above

| Compound | IC50 (EGFR L858R+T790M) [nM] | IC50 (EGFR L858R) [nM] | IC50 [1] [nM] | IC50 [2] [nM] | IC50 (NIH3T3/EGFR L858R+T790M) [nM] | IC50 [3] [nM] | IC50 (EGFR E746-A750 deletion) [nM] | IC50 (NIH3T3/EGFR_L858R) [nM] | IC50 (EGFR Del (PC9)) [nM] |
| --- | --- | --- | --- | --- | --- | --- | --- | --- | --- |
| C=CC(=O)N1C[C@H](COc2nc(Nc3cnn(C)c3)nc3[nH]cc(Cl)c23)[C@@H]([C@H](C)O)C1 (single isomer, unassigned) [Example 10] | 80 | 1810 | > 10000 | 10 to 100 | > 1000 | 100 to 1000 | 1020 | > 1000 | – |
| C=CC(=O)Nc1cccc(Oc2nc(Nc3cnn(C)c3)nc3[nH]cc(-c4cccnc4)c23)c1 [Example 8, N-[3-({2-[(1-methyl-1H-pyrazol-4-yl)amino]-5-(pyridin-3-yl)-7H-pyrrolo[2,3-d]pyrimidin-4-yl}oxy)phenyl]prop-2-enamide] | 17 | 25 | 1370 | – | – | – | 8 | – | 3 |
| C=CC(=O)N1C[C@H](COc2nc(Nc3cnn(C)c3)nc3[nH]cc(Cl)c23)[C@@H](OC)C1 [Example 9, 1-{(3R,4R)-3-[5-chloro-2-(1-methyl-1H-pyrazol-4-ylamino)-7H-pyrrolo[2,3-d]pyrimidin-4-yloxymethyl]-4-methoxy-pyrrolidin-1-yl}propenone trifluoroacetate] | – | – | – | < 10 | 100 to 1000 | 10 to 100 | – | 100 to 1000 | – |
| C=CC(=O)Nc1cccc(Oc2nc(Nc3cnn(C(C)C)c3)nc3[nH]ccc23)c1 [Example 31] | 11 | 105 | 947 | 10 to 100 | 10 to 100 | 10 to 100 | – | > 1000 | – |
| C=CC(=O)Nc1cccc(Oc2nc(Nc3cnn(C4CCN(C)C4)c3)nc3[nH]ccc23)c1 (centres unmarked) [Example 34] | 14 | 170 | 4030 | < 10 | 10 to 100 | < 10 | – | 100 to 1000 | – |
| C=CC(=O)Nc1cccc(Oc2nc(Nc3cnn(C)c3)nc3[nH]ccc23)c1 [Example 35] | – | – | – | < 10 | < 10 | < 10 | – | 100 to 1000 | – |
| C=CC(=O)N1CC[C@@H](COc2nc(Nc3cnn(C)c3)nc3[nH]cc(Cl)c23)C1 [Example 64] | – | – | – | < 10 | 10 to 100 | < 10 | – | 10 to 100 | – |
| C=CC(=O)N1C[C@H](COc2nc(Nc3cnn(CC)n3)nc3[nH]cc(Cl)c23)[C@@H](OC)C1 [Example 67] | 8 | 49 | > 10000 | – | – | – | 172 | – | 141 |
| C=CC(=O)N[C@H]1C[C@@](C)(Oc2nc(Nc3cnn(C)c3)nc3[nH]cc(Cl)c23)C1 [Example 69] | 19 | 287 | > 9370 | – | – | – | 117 | – | 465 |
| C=CC(=O)N1C[C@H](COc2nc(Nc3cnn([C@@H]4CCOC4)c3)nc3[nH]cc(Cl)c23)[C@@H](OC)C1 [Example 72] | – | – | – | 10 to 100 | 100 to 1000 | 100 to 1000 | – | 100 to 1000 | – |
| C=CC(=O)N1C[C@H](COC)[C@@H](COc2nc(Nc3cnn(C)c3)nc3[nH]cc(Cl)c23)C1 [Example 74] | – | – | – | 10 to 100 | 100 to 1000 | 10 to 100 | – | 100 to 1000 | – |
| C=CC(=O)N(C)[C@H]1C[C@H](Oc2nc(Nc3cnn(CC(O)CN(C)C)c3)nc3[nH]cc(Cl)c23)C1 (some centres unmarked) [Example 75] | 69 | 3550 | > 10000 | 10 to 100 | 100 to 1000 | 100 to 1000 | – | > 1000 | – |
| C=CC(=O)N1CCOC2(CCN(c3nc(Nc4cnn(C)c4)nc4[nH]cc(Cl)c34)C2)C1 (centres unmarked) [Example 76] | 26 | 855 | > 10000 | 100 to 1000 | 100 to 1000 | 100 to 1000 | – | > 1000 | – |
| C=CC(=O)N1CC[C@@H](Nc2nc(Nc3cnn(C)c3)nc3[nH]cc(C#N)c23)C1 [Example 78] | – | – | > 10000 | – | – | – | – | – | 3220 |
| C=CC(=O)N1CC(Oc2nc(Nc3cnn(C)c3)nc3[nH]cc(Cl)c23)C1 [Example 105] | 37 | 490 | > 10000 | 100 to 1000 | 100 to 1000 | 100 to 1000 | – | 100 to 1000 | – |
| C=CC(=O)Nc1cccc(Oc2nc(Nc3cnn([C@H]4CCN(C)C4)c3)nc3[nH]ccc23)c1F [Example 106] | 8 | 15 | > 10000 | – | – | – | 9 | – | – |
| C=CC(=O)N1C[C@H](COc2nc(Nc3cnn(C)c3)nc3[nH]cc(-c4ccccn4)c23)[C@@H](OC)C1 [Example 117] | – | – | > 10000 | – | – | – | – | – | 838 |
